Laboratory results as given in patent US8022038B2, “Composition for acceleration of type I collagen production” (Fancl Corporation, priority 2005, dated 2011).
Non-standard residues stand in square brackets, D forms with d. No end group written: not given here. Hyp = O=C(O)[C@@H]1C[C@@H](O)CN1

System: three-dimensional human skin model (type I collagen production)
Test: Type I collagen production in three-dimensional human skin model (TESTSKIN LSE-high), Western blotting with imaging analysis
Format: cell-based
Experimental: Three-dimensional human skin models are widely used in safety evaluation and effectiveness evaluation as a simulated model of human skin. In this test, TESTSKIN (LSE-high) (Toyobo Co., Ltd.) was used as a three-dimensional human skin model.
A culture medium was added to the outer well of TESTSKIN (LSE-high) and cultured for 24 hours. Thereafter, the culture solution was changed and each agent was added by 100 μl onto the tissues in the assay ring, after which the medium was cultured for 36 hours. Thereafter, the tissues were collected and a tissue extraction solution (50 mM Tris-HCl (pH 7.5), 0.5% (Octylphenoxy) polyethoxyethanol (Sigma-Aldrich Corp.)) was added, and then the mixture was homogenized using a homogenizer made of fluorocarbon resin. The homogenized mixture was centrifuged for 30 minutes at 10,000×G to remove tissue fragments, and then dialyzed overnight in distilled water at 4° C. Thereafter, the dialyzed mixture was freeze-dried to remove water. A tissue extraction solution was added to obtain a x20 concentrate, and this concentrate was used in Western blotting as a three-dimensional skin model extract sample.
Using a three-dimensional human skin model extract sample, 10 μg of protein was applied per lane, after which the sample was separated via SDS-PAGE and the result was transferred onto nitrocellulose membranes. The transferred nitrocellulose membranes were soaked in a blocking solution (solution prepared by dissolving skim milk in a PBS containing 0.1% polyoxyethylene (20) sorbitan monolaurate to achieve a concentration of 5%) and blocked for one whole day at 4° C. The blocked membranes were washed with a washing solution (PBS containing 0.1% polyoxyethylene (20) sorbitan monolaurate) and then soaked in a primary antibody (polyclonal antibody of type I collagen (Rockland Inc.) adjusted to 500 ng/ml using a washing solution) to cause reaction for 1 hour at room temperature. The reacted membranes were washed and then soaked in a secondary antibody (horseradish peroxidase labeled anti-rabbit immunoglobulin G adjusted to 250 ng/ml using a washing solution) to cause reaction for 1 hour at room temperature. The reacted membranes were washed and then detection was performed using an ECL plus Western blotting detection reagent (Amersham Biosciences Inc.). The detected band was also scanned into an image scanner (Amersham Biosciences Inc.) and analyzed using image master software (Amersham Biosciences Inc.) for conversion to numerical values.

[1] = 10 μM alone, Example 3, FIGS. 9 and 10
[2] = 10 μM, Example 3, FIGS. 7 and 8
[3] = 30 μM, Example 3, FIGS. 7 and 8
[4] = 10 μM, 36 h treatment, Example 1, FIGS. 1 and 2

Molecule: Gly-His-Lys
- type I collagen production compared to the level in the untreated control [1]: 1.75 times
- type I collagen production compared to the level in the untreated control [2]: 1.75 times
- type I collagen production compared to the level in the untreated control [3]: 2.70 times

Molecule: COc1cc(C2Oc3cc([C@H]4Oc5cc(O)cc(O)c5C(=O)[C@@H]4O)ccc3OC2CO)ccc1O (stereo partly drawn) [silybin]
- type I collagen production compared to the level in the untreated control (5 μM alone, Example 3, FIGS. 9 and 10): 1.95 times
- type I collagen production compared to the level in the untreated control (5 μM used alone, Example 2, FIGS. 5 and 6): 1.85 times
- type I collagen production compared to the level in the untreated control [4]: 3.2 times

Molecule: COc1cc([C@@H]2Oc3c(O)cc([C@H]4Oc5cc(O)cc(O)c5C(=O)[C@@H]4O)cc3[C@H]2CO)ccc1O [silychristin]
- type I collagen production compared to the level in the untreated control [4]: 0.95 times

Molecule: Gly-Glu-Pro-Arg (GEPR) [peptide derived from an immunoglobulin G decomposition product, synthesized]
- type I collagen production compared to the level in the untreated control [1]: 2.10 times
- type I collagen production compared to the level in the untreated control [2]: 2.15 times
- type I collagen production compared to the level in the untreated control [3]: 3.55 times

Molecule: Gly-Pro-[Hyp]
- type I collagen production compared to the level in the untreated control (5 μM, Example 2, FIGS. 3 and 4): 1.05 times
- type I collagen production compared to the level in the untreated control (10 μM, Example 2, FIGS. 3 and 4): 1.15 times
- type I collagen production compared to the level in the untreated control (30 μM used alone, Example 2, FIGS. 5 and 6): 1.25 times
- type I collagen production compared to the level in the untreated control (30 μM, Example 2, FIGS. 3 and 4): 1.25 times

Molecule: Lys-Thr-Thr-Lys-Ser (KTTKS) [pentapeptide derived from an α1 collagen decomposition product, synthesized]
- type I collagen production compared to the level in the untreated control [1]: 1.80 times
- type I collagen production compared to the level in the untreated control [2]: 1.80 times
- type I collagen production compared to the level in the untreated control [3]: 2.45 times

Molecule: COc1cc([C@@H]2[C@H]3CO[C@@]4(O)C(=O)[C@@H]2C=C([C@H]2Oc5cc(O)cc(O)c5C(=O)[C@@H]2O)[C@@H]34)ccc1O [silydianin]
- type I collagen production compared to the level in the untreated control [4]: 0.9 times
